Consider one compound from patent US20050142204A1 (priority 2001, published 2005).

One series relates to malaria parasites. Conditions: Surolia 2001, cited from earlier work.
For series [1] the following is noted: topical and oral; Bhargava & Leonard 1996; cited from earlier work.
A short description of the next series: Solubility of triclosan. In kind it is physicochemical.
Series [2] has as its system fatty acid synthesis in Plasmodium falciparum. Conditions: cited from earlier work.
For series [3] the following is noted: cited from earlier work.
For series [4] the following is noted: human, in vivo, 552 mg. The protocol: Four volunteers were invited randomly to take part in the trial. The volunteers were in a rested and fasted state when the trial began. A single dose of 552 mg (two soft gelatine capsules) was administered and blood samples were drawn 15 times over 36 hours.
Quantitative analysis of the blood samples was conducted using an HPLC method developed and validated at the Research Institute for Industrial Pharmacy. Results of the analysis were evaluated statistically and values for AUC, Cmax and tmax were obtained.
A) Chromatographic Condition: • Analytical instrument: HP1050 series HPLC with a pump, autosampler, UV detector and Chemstation Rev.
B) Sample Preparation with enzymatic hydrolysis: • 1. Pipet 1 ml of plasma into a 5 ml siliconised glass test tube. • 2. Add 1 ml of 0.2 M sodium acetate-acetic acid buffer, pH 5.0. • 3. […] Vortex mix for 10 seconds, seal and incubate at 40° C. for 12 hours. • 5. Add 0.5 ml of the internal standard solution and centrifuge at 14000 rpm (4900 RCF) for 10 minutes before applying to the SPE columns.
C) Internal Standard Solution: • 1. Weight approximately 5 mg of acenaphthene accurately and dissolve in 250 ml of solvent. • 2. Add 0.5 ml of this solution to all standards and samples.
D) Standard Solution: • 1. […] Make further dilutions of 5 ml to 100 ml and 10 ml to 50 ml in water to obtain 80, 16- and 4.0 μg/ml stock solutions.
3. […]

With `Oc1cc(Cl)ccc1Oc1ccc(Cl)cc1Cl` [triclosan], the “activity against malaria parasites” value in the series on malaria parasites is given as “active against malaria parasites”. Besides, the effective dose with malaria parasites (malaria) was 28 to 38 mg/kg. For the same compound, in series [1], the “safety in toxicity studies” value was “safe topically as well as orally”. In addition, the solubility in oils result in “Solubility of triclosan” is “very soluble in oils”. Besides, the “concentration sufficient for 50% inhibition of fatty acid synthesis” value in series [2] (Surolia and Surolia (2001:168), printed in brackets beside the μM value) is 580 ng/mL. Moreover, the IC50 in series [2] (read-out: concentration sufficient for 50% inhibition of fatty acid synthesis, Surolia and Surolia (2001:168)) was 3000 nM. Besides, in series [3], the solubility in water entry is “very low solubility in water”. Moreover, the bioavailability entry in series [4] was “good in three of the four volunteers”.
